Patent publication US7307166B1, “Oxpurine nucleosides and their congeners, and acyl, derivatives thereof, for improvement of hematopoiesis” (Wellstat Therapeutics Corporation, priority 1987, dated 2007)

Experiments:
[1] = system: rabbits treated with cyclophosphamide; settings: rabbit, in vivo; cited from earlier work
[2] = system: bone marrow cells in culture; settings: sub-optimal amounts of colony stimulating factors; cited from earlier work
Balb/C female mice [3] = assay: Hematopoietic recovery after cyclophosphamide in mice (spleen weight, blood cell counts); type: in vivo, mouse
Balb/C female mice [4] = assay: as above; type: in vivo, mouse; settings: for Neutrophils / peripheral total white blood cells: Ex 37: day 7 after CP, 5 μmoles/mouse/day i.p. 6 days
Protocol: Twenty-four hours later and each day thereafter for a total of 6 days, mice were given a 0.4 ml i.p. injection of either physiological saline (controls), guanine (5 μmoles/mouse/day), or guanosine (5 μmoles/mouse/day). On day 7 all 10 mice in each of the three groups were bled, and then sacrificed by cervical dislocation. Spleens were removed and weighed, and complete blood cell counts performed.
Twenty-four hours later and each day thereafter for a total of 6 days, mice were given a 0.4 ml i.p injection of either physiological saline (controls), Tween 80 (0.2%), guanosine (5 μmoles/mouse/day in 0.2% Tween 80), or 2.5 μmoles per mouse per day of one of the following acylated derivatives of guanosine in 0.2% Tween 80: triacetylguanosine, octanoylguanosine, lauroylguanosine, or palmitoylguanosine. On day 7 following CP administration all 10 animals from each of the 7 groups were bled, and then sacrificed by cervical dislocation. Spleens were removed and weighed, and complete blood counts performed.
Twenty-four hours later treatment was begun. Mice were given a 0.4 ml i.p. injection of either physiological saline (controls), Tween 80 (0.2%), or palmitoylguanosine (5 μmoles/mouse/day in 0.2% Tween 80). The timing of the treatments was varied within the groups. The control group was given saline on days 1-6. The mice receiving Tween 80 were treated either on days 1-4, 4-6 or 1-6. Palmitoylguanosine-treated mice were treated either on days 1-2, 1-4, 3-5, 4-6 or 1-6. If a group of mice received no Tween 80 or palmitoylguanosine on a given day, saline was administered by i.p. injection. Thus, there were 9 groups of 9 animals in all. On day 7 following CP administration all of the animals were bled and then sacrificed by cervical dislocation. Spleens were removed and weighed, and complete blood cell counts performed.
Twenty-four hours later and each day thereafter for a total of 6 days, mice were given a 0.4 ml i.p. injection of either physiological saline (controls), Tween 80 (0.5%), or one of three different doses of octanoylguanosine (0.5, 2.5, or 5 μmoles/mouse/day in 0.5% Tween 80). On day 7 following CP administration all 9 animals from each of the […] were bled and then sacrificed by cervical dislocation. Spleens were removed and weighed, and complete blood cell counts performed.
Twenty-four hours later and each day thereafter for a total of 6 days, mice were given a 0.4 ml i.p. injection of either physiological saline (controls), Tween 80 (0.5%), or octanoylguanosine (5.0 μmoles/mouse/day in 0.5% Tween 80). On day 7 following CP administration all 10 animals from each of the 3 groups were bled and then sacrificed by cervical dislocation. Spleens were removed, weighed, and fixed in 10% formalin for later histological examination. Complete blood cell counts were performed on the collected blood.
Twenty-four hours later and each day thereafter for a total of 6 days, mice were given a 0.4 ml i.p. injection of either physiological saline (controls), benzoylguanosine (2.5 μmoles/mouse/day in 0.2% Tween 80), or palmitoylguanosine (2.5 μmoles/mouse/day in 0.2% Tween 80). On days 7 and 10 following CP administration 8 animals from each of the 3 groups were bled and then were sacrificed by cervical dislocation. Spleens were removed and weighed, and complete blood cell counts performed.
Twenty four hours later and each day thereafter for a total of 4 or 6 days, mice were given a 0.4 ml i.p. injection of either physiological saline (controls), palmitoyldeoxyinosine (2.5 μmoles/mouse), or palmitoyl-xanthosine (2.5 μmoles/mouse). On days 5 and 7 following CP administration 6 of the 12 animals in each of the 3 groups were bled and then sacrificed by cervical dislocation. Spleens were removed and weighed, and complete blood cell counts performed.

[5] = system: human myeloid leukemia cell line (HL-60); settings: incubation of HL-60 cells; cited from earlier work
[6] = system: mouse bone marrow cells in culture; settings: under stimulatory influence of serum from endotoxin-treated mice; cited from earlier work
[7] = Ex 38: day 7 after CP, guanosine 5, acyl derivatives 2.5 μmoles/mouse/day in 0.2% Tween 80 i.p. 6 days, Tween 80 0.2%
[8] = Ex 37: day 7 after CP 275 mg/kg i.p., 5 μmoles/mouse/day i.p. 6 days, vs saline

In the case of polyguanosine monophosphate, the leukocyte formation [1] is listed as “failed to stimulate”.
In the case of “polyoxyethylene sorbitan mono-oleate [Tween 80]”, the “concentration of maximum activity” value [2] is listed as 10 ng/mL, the spleen weight (Balb/C female mice [3]; Ex 46: day 7 after CP, Tween 80 0.5% alone vs saline) is listed as “modest increase” and the neutrophil counts (Balb/C female mice [3]; Ex 58: day 7 after CP, 1.0% Tween alone i.p. 6 days, vs saline) is listed as “significantly different from controls”. For the same molecule, the spleen weight (Balb/C female mice [4]; [7]) was “No significant difference”, the lymphocyte counts (Balb/C female mice [4]; Ex 41: day 7 after CP, Tween 80 0.2% for any period) was “not affected” and the spleen weight (Balb/C female mice [4]; Ex 41: day 7 after CP, Tween 80 0.2% on days 4-6 or 1-6 (not days 1-4), vs saline) was “elevated”. The mean spleen weight (Balb/C female mice [4]; Ex 45: day 7 after CP, Tween 80 0.5%) was “some increase”.
In the case of `Nc1nc2nc[nH]c2c(=O)[nH]1` [guanine], the “induced maturation into functional neutrophils” value [5] is listed as “prevented”, the spleen weight (Balb/C female mice [3]; [8]) is listed as “significantly heavier spleens” and the Neutrophils (Balb/C female mice [4]; vs saline) is listed as “significantly more”. The “peripheral total white blood cells” value (Balb/C female mice [4]; vs saline) was “significantly more”.
In the case of `Nc1nc2c(ncn2[C@@H]2O[C@H](CO)[C@@H](O)[C@H]2O)c(=O)[nH]1` [guanosine], the “induced maturation into functional neutrophils” value [5] is given as “prevented”, the spleen weight (Balb/C female mice [3]; [8]) is given as “significantly heavier spleens” and the Neutrophils (Balb/C female mice [4]; vs saline) is given as “significantly more”. The “peripheral total white blood cells” value (Balb/C female mice [4]; vs saline) was “significantly more” and the spleen weight (Balb/C female mice [4]; [7]) was “No significant difference”.
In the case of `Nc1nc2c(ncn2[C@@H]2O[C@H](COP(=O)(O)O)[C@@H](O)[C@H]2O)c(=O)[nH]1` [5′-guanosine monophosphate], the “number of colonies formed” value [6] is listed as “inactive”.
In the case of polyadenosine monophosphate, the leukocyte formation [1] is given as “failed to stimulate”.
For `Nc1nc2c(ncn2[C@@H]2O[C@@H]3COP(=O)(O)O[C@H]3[C@H]2O)c(=O)[nH]1` [cGMP, 3′,5′-cyclic guanosine monophosphate], the “number of colonies formed” value [6] is given as “increase”.
